pIC50, pKi: −log10 of the molar value.

Series [1] is described as follows: Microsomal stability in rat liver microsomes assessed as remaining compound after 1 hr incubation. The following applies: read-out: Stability. Type of series: ADME, Microsome. A general note: Microsomes from liver hold many membrane-bound enzymes, among them those of drug oxidation.
The target of series [2] is T1, Histone-lysine N-methyltransferase SMYD3 (Homo sapiens, UniProt Q9H7B4).
T1 sequence (Q9H7B4 whole entry): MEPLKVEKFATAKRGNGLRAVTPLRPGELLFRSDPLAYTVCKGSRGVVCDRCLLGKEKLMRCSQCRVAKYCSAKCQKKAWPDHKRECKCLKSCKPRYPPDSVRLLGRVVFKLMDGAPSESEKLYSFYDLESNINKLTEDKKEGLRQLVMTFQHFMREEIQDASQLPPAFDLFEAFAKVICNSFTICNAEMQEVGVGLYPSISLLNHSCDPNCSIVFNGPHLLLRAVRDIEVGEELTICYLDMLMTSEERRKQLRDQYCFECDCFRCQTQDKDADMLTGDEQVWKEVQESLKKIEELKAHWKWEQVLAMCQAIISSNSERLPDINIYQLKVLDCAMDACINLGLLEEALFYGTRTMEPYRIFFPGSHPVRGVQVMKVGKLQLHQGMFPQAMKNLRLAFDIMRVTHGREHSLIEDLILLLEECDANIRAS
Briefly: Inhibition of SMYD3 (unknown origin).

The target of series [3] is Protein arginine N-methyltransferase 5 (Homo sapiens, UniProt O14744). Briefly: Binding affinity to PRMT5 (unknown origin) assessed as inhibition constant.
Series [4] has as its target Histone-lysine N-methyltransferase SETD2 (Homo sapiens, UniProt Q9BYW2). Nature of the series: Inhibition of SETD2 (unknown origin).
Series [5] has as its target T2, Protein arginine N-methyltransferase 7 (Homo sapiens, UniProt Q9NVM4).
T2 sequence (Q9NVM4 whole entry): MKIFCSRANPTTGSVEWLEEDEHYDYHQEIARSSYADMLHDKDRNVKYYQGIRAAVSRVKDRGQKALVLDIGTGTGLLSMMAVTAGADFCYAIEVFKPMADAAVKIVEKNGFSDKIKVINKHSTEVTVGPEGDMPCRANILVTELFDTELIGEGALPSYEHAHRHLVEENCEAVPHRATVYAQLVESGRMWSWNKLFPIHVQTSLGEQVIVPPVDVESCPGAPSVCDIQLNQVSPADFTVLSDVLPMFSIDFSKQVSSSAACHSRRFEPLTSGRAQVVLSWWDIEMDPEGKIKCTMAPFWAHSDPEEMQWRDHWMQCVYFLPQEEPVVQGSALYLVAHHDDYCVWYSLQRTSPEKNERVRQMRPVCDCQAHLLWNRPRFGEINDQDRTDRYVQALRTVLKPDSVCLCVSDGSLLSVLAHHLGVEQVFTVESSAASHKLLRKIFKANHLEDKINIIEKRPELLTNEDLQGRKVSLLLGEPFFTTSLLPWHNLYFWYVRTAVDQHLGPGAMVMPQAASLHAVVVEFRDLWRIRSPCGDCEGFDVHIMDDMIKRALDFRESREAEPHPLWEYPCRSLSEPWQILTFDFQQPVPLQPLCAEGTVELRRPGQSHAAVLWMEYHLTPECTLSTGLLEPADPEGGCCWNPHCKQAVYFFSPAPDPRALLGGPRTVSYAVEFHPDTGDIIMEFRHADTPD
Briefly: Inhibition of PRMT7 (unknown origin).

Sequence of Histone-lysine N-methyltransferase SETD2 (Q9BYW2 whole entry): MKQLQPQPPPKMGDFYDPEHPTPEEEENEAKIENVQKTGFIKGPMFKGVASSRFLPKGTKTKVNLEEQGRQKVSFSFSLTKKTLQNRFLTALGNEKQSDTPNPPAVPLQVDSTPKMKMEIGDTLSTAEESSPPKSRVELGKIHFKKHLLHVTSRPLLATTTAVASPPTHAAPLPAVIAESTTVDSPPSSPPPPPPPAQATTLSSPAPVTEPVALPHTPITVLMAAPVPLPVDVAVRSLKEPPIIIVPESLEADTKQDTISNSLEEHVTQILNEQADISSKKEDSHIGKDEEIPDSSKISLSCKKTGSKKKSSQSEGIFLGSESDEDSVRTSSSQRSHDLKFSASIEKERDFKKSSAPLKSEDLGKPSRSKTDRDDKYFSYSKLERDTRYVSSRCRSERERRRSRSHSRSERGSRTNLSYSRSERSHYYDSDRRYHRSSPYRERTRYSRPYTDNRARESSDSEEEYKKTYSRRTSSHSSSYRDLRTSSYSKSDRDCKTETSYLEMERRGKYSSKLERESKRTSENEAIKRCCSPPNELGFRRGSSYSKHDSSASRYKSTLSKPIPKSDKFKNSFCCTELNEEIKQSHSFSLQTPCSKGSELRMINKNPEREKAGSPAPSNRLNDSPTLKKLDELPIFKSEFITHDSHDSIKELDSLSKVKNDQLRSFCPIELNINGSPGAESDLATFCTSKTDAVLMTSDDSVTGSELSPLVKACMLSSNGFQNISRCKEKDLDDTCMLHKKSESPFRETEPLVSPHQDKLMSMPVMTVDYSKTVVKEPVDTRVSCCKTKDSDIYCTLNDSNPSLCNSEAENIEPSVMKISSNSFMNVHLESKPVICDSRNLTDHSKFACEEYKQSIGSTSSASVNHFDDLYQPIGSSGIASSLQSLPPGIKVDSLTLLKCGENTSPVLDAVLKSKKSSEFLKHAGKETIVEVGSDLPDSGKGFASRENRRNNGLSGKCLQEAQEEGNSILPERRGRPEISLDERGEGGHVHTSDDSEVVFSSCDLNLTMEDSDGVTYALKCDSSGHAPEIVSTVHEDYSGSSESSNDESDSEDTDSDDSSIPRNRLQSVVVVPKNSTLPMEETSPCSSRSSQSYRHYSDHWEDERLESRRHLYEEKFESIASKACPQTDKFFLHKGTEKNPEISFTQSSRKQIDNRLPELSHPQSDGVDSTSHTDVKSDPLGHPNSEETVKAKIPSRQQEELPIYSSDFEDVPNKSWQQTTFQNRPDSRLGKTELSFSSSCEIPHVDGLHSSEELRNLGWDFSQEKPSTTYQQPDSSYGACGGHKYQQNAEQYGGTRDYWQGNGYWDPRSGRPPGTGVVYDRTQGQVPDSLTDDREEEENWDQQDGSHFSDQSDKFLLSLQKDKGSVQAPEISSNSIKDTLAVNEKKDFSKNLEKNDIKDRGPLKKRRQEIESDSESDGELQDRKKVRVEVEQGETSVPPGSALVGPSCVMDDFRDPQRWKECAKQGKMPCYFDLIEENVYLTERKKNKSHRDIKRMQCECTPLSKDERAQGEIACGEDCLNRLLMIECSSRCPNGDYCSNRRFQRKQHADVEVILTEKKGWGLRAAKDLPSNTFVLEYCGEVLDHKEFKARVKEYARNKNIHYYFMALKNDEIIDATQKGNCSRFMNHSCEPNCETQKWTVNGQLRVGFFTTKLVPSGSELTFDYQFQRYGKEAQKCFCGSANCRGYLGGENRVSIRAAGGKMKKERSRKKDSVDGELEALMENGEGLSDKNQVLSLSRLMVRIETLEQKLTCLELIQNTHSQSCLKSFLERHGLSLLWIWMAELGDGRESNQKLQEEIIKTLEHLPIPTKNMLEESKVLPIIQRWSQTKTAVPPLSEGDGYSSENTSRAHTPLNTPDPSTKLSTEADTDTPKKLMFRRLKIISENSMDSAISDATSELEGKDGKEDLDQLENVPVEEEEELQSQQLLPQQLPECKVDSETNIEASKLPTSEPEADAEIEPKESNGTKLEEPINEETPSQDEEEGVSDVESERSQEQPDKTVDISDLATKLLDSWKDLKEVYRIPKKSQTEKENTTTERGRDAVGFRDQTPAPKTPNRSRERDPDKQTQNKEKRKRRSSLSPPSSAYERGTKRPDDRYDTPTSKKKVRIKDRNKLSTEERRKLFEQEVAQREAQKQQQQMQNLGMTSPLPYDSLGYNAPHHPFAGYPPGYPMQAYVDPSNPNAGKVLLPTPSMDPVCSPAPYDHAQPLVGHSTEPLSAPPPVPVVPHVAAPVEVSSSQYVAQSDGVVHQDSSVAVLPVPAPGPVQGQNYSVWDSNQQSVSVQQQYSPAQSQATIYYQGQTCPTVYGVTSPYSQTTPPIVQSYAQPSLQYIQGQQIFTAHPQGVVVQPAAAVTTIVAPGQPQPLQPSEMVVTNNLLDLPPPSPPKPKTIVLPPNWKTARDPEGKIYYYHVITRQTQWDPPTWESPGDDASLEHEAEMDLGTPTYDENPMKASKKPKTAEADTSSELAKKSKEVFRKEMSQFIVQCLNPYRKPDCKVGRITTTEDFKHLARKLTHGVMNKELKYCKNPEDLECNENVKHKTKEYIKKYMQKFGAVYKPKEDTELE
Sequence of Protein arginine N-methyltransferase 5 (O14744 whole entry): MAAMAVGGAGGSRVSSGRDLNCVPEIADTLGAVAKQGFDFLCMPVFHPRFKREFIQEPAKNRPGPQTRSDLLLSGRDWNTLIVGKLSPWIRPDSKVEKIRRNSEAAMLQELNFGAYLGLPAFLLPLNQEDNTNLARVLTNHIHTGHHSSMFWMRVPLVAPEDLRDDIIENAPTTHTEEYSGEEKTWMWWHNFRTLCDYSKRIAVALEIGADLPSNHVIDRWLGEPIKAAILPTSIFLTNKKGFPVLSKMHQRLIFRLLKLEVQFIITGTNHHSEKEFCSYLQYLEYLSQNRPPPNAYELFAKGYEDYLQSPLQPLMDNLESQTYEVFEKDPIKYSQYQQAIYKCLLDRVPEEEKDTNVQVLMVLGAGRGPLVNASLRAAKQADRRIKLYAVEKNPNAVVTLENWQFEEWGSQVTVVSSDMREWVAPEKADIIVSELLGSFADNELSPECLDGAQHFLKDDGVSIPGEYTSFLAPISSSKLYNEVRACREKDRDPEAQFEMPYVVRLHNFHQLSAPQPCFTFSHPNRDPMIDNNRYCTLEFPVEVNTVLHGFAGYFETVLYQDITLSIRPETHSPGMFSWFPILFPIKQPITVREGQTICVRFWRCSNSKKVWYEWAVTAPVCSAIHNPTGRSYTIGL

Consider `COc1cccc(CCNC(=O)[C@H](CC[C@@H](CNCc2ccccc2)C[C@H]2O[C@@H](n3cnc4c(N)ncnc43)[C@H](O)[C@@H]2O)NC(=O)CC(C)(C)C2=C(C)C(=O)C(C)=C(C)C2=O)c1`, for which the remaining at 1 h in series [1] is 24%.
Take `CN(C)CCCN(CC[C@H](N)C(=O)O)C[C@@H]1O[C@H](n2cnc3c(N)ncnc32)[C@@H](O)[C@H]1O`: the pIC50 – broadly, the IC50 on a negative log10 scale, so that one unit is a factor of ten – in series [2] is 6.89.
`Nc1ncnc2c1ccn2[C@H]1O[C@@H]([C@H](O)c2ccc(Cl)c(F)c2)[C@H](O)[C@@H]1O`: the pKi (usually the negative decadic logarithm of the Ki, by convention in mol/L) in series [3] was 10.70.
Compound `CCCN(CC[C@H](N)C(=O)O)C[C@@H]1O[C@H](n2cnc3c(N)ncnc32)[C@@H](O)[C@H]1O` gave a pIC50 in series [4] of 6.10.
Compound `Nc1ncnc2c1ncn2[C@@H]1O[C@H](CSCCCCNCc2cccc(-c3ccc(Cl)cc3)c2)[C@@H](O)[C@H]1O` had a negative logarithm of the IC50 (pIC50) in series [5] of over 8.60.

Source of the values: ChEMBL document CHEMBL5136992, “Fascinating Transformation of SAM-Competitive Protein Methyltransferase Inhibitors from Nucleoside Analogues to Non-Nucleoside Analogues” (J Med Chem, 2022).
